{"source": "patent US9877999B2", "about": "“Methods for treating metastatic stage prostate cancer” (Ferring International SA, priority 2008, dated 2018)", "format_in_all_cases": "in vivo, human", "key": {"[1]": {"tested_on": "serum alkaline phosphatase (S-ALP)", "assay": "S-ALP analysis in prostate cancer patients (clinical study CS21)", "conditions": "Leuprolide 7.5 mg", "procedure": "Patients with histologically confirmed adenocarcinoma of the prostate (all stages), for whom androgen deprivation therapy was indicated were recruited. Baseline characteristics were well balanced between groups. Approximately half of patients had locally advanced (29.2%) or metastatic (20.5%) disease at baseline. […] Patients receiving leuprolide could also receive bicalutamide for clinical flare protection. The S-ALP levels were measured in each patient at various time points, by taking a blood sample and analyzing for S-ALP. S-ALP levels were measured using a standardized colorimetric assay based on the p-nitrophenyl phosphate AMP buffer method. The normal range for S-ALP is 44-147 IU/L. The S-ALP values in non-metastatic patients serve as controls. An ANOVA analysis with treatment and day as factors and baseline value as covariate was used to determine between treatment differences at Day 364. A repeated measures analysis (incorporating all time points from Day 112) with treatment and day as factors and baseline value as covariate was used to assess between treatment differences from Day 112 to Day 364."}, "[2]": {"tested_on": "prostate-specific antigen (PSA)", "assay": "PSA failure in prostate cancer patients (clinical study CS21)", "conditions": "for proportion of PSA failures: leuprolide 7.5 mg", "procedure": "For this analysis, PSA failure (a secondary endpoint) was defined as two consecutive increases in PSA of 50% and 5 ng/mL compared with nadir. The time to PSA failure was defined as the number of days from first dosing to where an increase in serum PSA of 50% from nadir and 5 ng/mL, measured on two consecutive occasions at least two weeks apart, was noted. The second occasion was the time point of meeting the criterion. PSA failure rates were also analyzed by disease stage and baseline PSA level.\n(§1) The secondary efficacy endpoints were: the proportion of patients with testosterone surge during the first 2 weeks of treatment; the proportion of patients with testosterone level ≦0.5 ng/mL at day 3; the percentage change in PSA from baseline to day 28; the probability of testosterone ≦0.5 ng/mL from day 56 through day 364; the levels of serum testosterone, LH, FSH and PSA over time through the study; the time to PSA failure, defined as two consecutive increases of 50%, and at least 5 ng/mL as compared to nadir; degarelix concentration over the first month and trough levels at day 308 and 336; the frequency and size of testosterone increases at day 255 and/or 259 compared to the testosterone level at day 252; the quality of life on days 0, 28, 84, 168 and end of study visit; the frequency and intensity of hot flushes experienced (scored daily from study start until end of study visit). In addition, two further secondary endpoints were added: the probability of sufficient testosterone response from day 28 through day 364 (a patient was considered to have insufficient testosterone response if they had one testosterone value >1.0 ng/mL or two consecutive testosterone values >0.5 ng/mL at day 28 onwards); and the percentage change in PSA from baseline to day 14.\nThe secondary endpoints, probability of testosterone ≦0.5 ng/mL from day 56 through day 364, time to PSA failure, and probability of sufficient testosterone response from day 28 through day 364 were analyzed by the Kaplan-Meier method."}, "testosterone": {"tested_on": "testosterone", "conditions": "leuprolide 7.5 mg group", "procedure": "The study also evaluated the pharmacokinetics of the degarelix dosing regimens investigated. Finally, the study examined the effects of using the degarelix treatment on patients suffering from different stages of cancer. […] The primary efficacy endpoint was the probability of testosterone levels remaining ≦0.5 ng/mL from day 28 through day 364. […] The primary efficacy endpoint was analyzed for both the ITT and PP analysis sets, with the ITT analysis set considered primary. The primary efficacy endpoint was analyzed using the Kaplan Meier method. For each of the three treatment groups, testosterone response rates with 95% confidence interval (CI) were calculated by log-log transformation of survivor function. […] All secondary efficacy endpoints were analyzed for both the ITT and PP analysis sets, unless otherwise stated. […] The percentage change in PSA from baseline to day 28 endpoint was analyzed by a Wilcoxon test."}, "[3]": {"tested_on": "prostate-specific antigen (PSA)", "assay": "Serum PSA level change in prostate cancer patients (clinical study CS21)", "conditions": "leuprolide 7.5 mg patients who did not receive anti-androgen therapy", "procedure": "All secondary efficacy endpoints were analyzed for both the ITT and PP analysis sets, unless otherwise stated. The proportion of patients with testosterone surge during the first 2 weeks of treatment was analyzed using Fisher's exact test. […] The percentage change in PSA from baseline to day 28 endpoint was analyzed by a Wilcoxon test."}, "luteinizing hormone (LH)": {"tested_on": "luteinizing hormone (LH)", "assay": "Serum LH levels over time (clinical study CS21)", "conditions": "leuprolide 7.5 mg group", "procedure": "(§2) The study also investigated whether degarelix is safe and effective with respect to achieving and maintaining testosterone suppression to castrate levels, evaluated as the proportion of patients with testosterone suppression ≦0.5 ng/mL during 12 months of treatment. […] The study also evaluated the pharmacokinetics of the degarelix dosing regimens investigated. Finally, the study examined the effects of using the degarelix treatment on patients suffering from different stages of cancer.\n(§3) Patients in two treatment groups received a degarelix starting dose of 240 mg at a concentration of 40 mg/mL (240@40) on day 0 administered as two equivalent subcutaneous (s.c.) injections of 120 mg each. Thereafter, patients received 12 additional single s.c. degarelix doses of either 80 mg at a concentration of 20 mg/mL (80@20: degarelix 240/80 mg group) or 160 mg at a concentration of 40 mg/mL (160@40: degarelix 240/160 mg group) administered s.c. every 28 days.\nas §1"}, "[4]": {"tested_on": "follicle stimulating hormone (FSH)", "assay": "Serum FSH levels over time (clinical study CS21)", "conditions": "leuprolide 7.5 mg group", "procedure": "as §2, §3, §1"}}, "note": "“And” between values parts separate entries of the source, which are not always exact repeats. Equal values may be shown once."}
{"smiles": "CCNC(=O)[C@@H]1CCCN1C(=O)[C@H](CCCNC(=N)N)NC(=O)[C@H](CC(C)C)NC(=O)[C@@H](CC(C)C)NC(=O)[C@H](Cc1ccc(O)cc1)NC(=O)[C@H](CO)NC(=O)[C@H](Cc1c[nH]c2ccccc12)NC(=O)[C@H](Cc1c[nH]cn1)NC(=O)[C@@H]1CCC(=O)N1", "note": "[leuprolide, reference compound]", "values": [{"measurement": "S-ALP mean change from baseline", "setting": "[1]; Localized, Day 112", "result": "+5 IU/L"}, {"measurement": "S-ALP mean change from baseline", "setting": "[1]; Localized, Day 224", "result": "+7 IU/L"}, {"measurement": "S-ALP mean change from baseline", "setting": "[1]; Localized, Day 364", "result": "+9 IU/L"}, {"measurement": "S-ALP mean change from baseline", "setting": "[1]; Locally advanced, Day 112", "result": "−1", "unit": "IU/L"}, {"measurement": "S-ALP mean change from baseline", "setting": "[1]; Locally advanced, Day 224", "result": "−1", "unit": "IU/L"}, {"measurement": "S-ALP mean change from baseline", "setting": "[1]; Locally advanced, Day 364", "result": "+6 IU/L"}, {"measurement": "S-ALP mean change from baseline", "setting": "[1]; Metastatic (Hb < 130 g/L), Day 112", "result": "−30", "unit": "IU/L"}, {"measurement": "S-ALP mean change from baseline", "setting": "[1]; Metastatic (Hb < 130 g/L), Day 224", "result": "−70", "unit": "IU/L"}, {"measurement": "S-ALP mean change from baseline", "setting": "[1]; Metastatic (Hb < 130 g/L), Day 364", "result": "−10", "unit": "IU/L"}, {"measurement": "S-ALP mean change from baseline", "setting": "[1]; Metastatic, Day 112", "result": "−20", "unit": "IU/L"}, {"measurement": "S-ALP mean change from baseline", "setting": "[1]; Metastatic, Day 224", "result": "−50", "unit": "IU/L"}, {"measurement": "S-ALP mean change from baseline", "setting": "[1]; Metastatic, Day 364", "result": 0, "unit": "IU/L"}, {"measurement": "S-ALP mean change from baseline", "setting": "[1]; baseline PSA 10-20 ng/mL, Day 112", "result": "+5 IU/L"}, {"measurement": "S-ALP mean change from baseline", "setting": "[1]; baseline PSA 10-20 ng/mL, Day 224", "result": "+8 IU/L"}, {"measurement": "S-ALP mean change from baseline", "setting": "[1]; baseline PSA 10-20 ng/mL, Day 364", "result": "+8 IU/L"}, {"measurement": "S-ALP mean change from baseline", "setting": "[1]; baseline PSA 20-50 ng/mL, Day 112", "result": "+5 IU/L"}, {"measurement": "S-ALP mean change from baseline", "setting": "[1]; baseline PSA 20-50 ng/mL, Day 224", "result": "+8.5 IU/L"}, {"measurement": "S-ALP mean change from baseline", "setting": "[1]; baseline PSA 20-50 ng/mL, Day 364", "result": "+11 IU/L"}, {"measurement": "S-ALP mean change from baseline", "setting": "[1]; baseline PSA < 10 ng/mL, Day 112", "result": "+4.5 IU/L"}, {"measurement": "S-ALP mean change from baseline", "setting": "[1]; baseline PSA < 10 ng/mL, Day 224", "result": "+6 IU/L"}, {"measurement": "S-ALP mean change from baseline", "setting": "[1]; baseline PSA < 10 ng/mL, Day 364", "result": "+7.5 IU/L"}, {"measurement": "S-ALP mean change from baseline", "setting": "[1]; baseline PSA > 50 ng/mL, Day 112", "result": "−40", "unit": "IU/L"}, {"measurement": "S-ALP mean change from baseline", "setting": "[1]; baseline PSA > 50 ng/mL, Day 224", "result": "−60", "unit": "IU/L"}, {"measurement": "S-ALP mean change from baseline", "setting": "[1]; baseline PSA > 50 ng/mL, Day 364", "result": "+10 IU/L"}, {"measurement": "probability of completing the study without experiencing PSA failure by day 364", "setting": "[2]; leuprolide 7.5 mg group", "result": "85.9% and ~85.8%"}, {"measurement": "proportion of PSA failures", "setting": "[2]; patients with baseline PSA>50 ng/mL", "result": 40.0, "unit": "%"}, {"measurement": "proportion of PSA failures", "setting": "[2]; patients with metastatic disease at baseline", "result": 36.2, "unit": "%"}, {"measurement": "Kaplan-Meier estimate of the probability of testosterone ≦0.5 ng/mL from day 28 to day 364", "setting": "testosterone", "result": 96.4, "unit": "%"}, {"measurement": "patients exhibiting testosterone suppression on day 3", "setting": "testosterone", "result": "no patients"}, {"measurement": "overall proportion of patients with testosterone ≦0.5 ng/mL from day 28 to day 364", "setting": "testosterone; observed cases analysis", "result": 96.0, "unit": "%"}, {"measurement": "PSA median percentage reduction from baseline", "setting": "[3]; day 14", "result": 15.3, "unit": "%"}, {"measurement": "PSA median percentage reduction from baseline", "setting": "[3]; day 28", "result": 61.7, "unit": "%"}, {"measurement": "median LH level", "setting": "luteinizing hormone (LH); by day 56, remaining until day 364", "result": 0.035, "unit": "IU/L"}, {"measurement": "increase of median LH from baseline", "setting": "luteinizing hormone (LH); day 1", "result": "> 400", "unit": "%"}, {"measurement": "median LH level, peak", "setting": "luteinizing hormone (LH); day 1", "result": 31.0, "unit": "IU/L"}, {"measurement": "FSH level", "setting": "[4]; by day 14", "result": 2.0, "unit": "IU/L"}, {"measurement": "FSH level, peak", "setting": "[4]; day 1", "result": 22.5, "unit": "IU/L"}, {"measurement": "increase of FSH from baseline", "setting": "[4]; day 1", "result": 146, "unit": "%"}, {"measurement": "Median FSH plateau", "setting": "[4]; from around day 56 until day 364", "result": "approximately 4.40 IU/L"}]}
